Experimental data from the NIST ThermoML archive (doi:10.1021/je0499364).
± gives the expanded uncertainty stated by the source.

Key:
[1] = molar heat capacity at constant pressure; settings: 101.33 kPa
[2] = Crystal
[3] = Molar enthalpy of transition or fusion; settings: Crystal

CCCCCCCCCCC(=O)OC [methyl undecanoate]
[1]
Settings | molar heat capacity at constant pressure [J/K/mol]
5 K, Crystal | 0.42 ± 0.03
10 K, Crystal | 3.28 ± 0.08
20 K, Crystal | 18.49 ± 0.23
30 K, Crystal | 38.09 ± 0.24
40 K, Crystal | 59.59 ± 0.32
50 K, Crystal | 80.21 ± 0.4
60 K, Crystal | 97.96 ± 0.47
70 K, Crystal | 113.74 ± 0.54
80 K, Crystal | 128.03 ± 0.59
90 K, Crystal | 141.39 ± 0.68
100 K, Crystal | 152.92 ± 0.71
110 K, Crystal | 163.81 ± 0.73
120 K, Crystal | 173.57 ± 0.75
130 K, Crystal | 182.89 ± 0.77
140 K, Crystal | 191.72 ± 0.78
150 K, Crystal | 200.53 ± 0.8
160 K, Crystal | 209.38 ± 0.82
170 K, Crystal | 217.78 ± 0.84
180 K, Crystal | 226.5 ± 0.85
190 K, Crystal | 235.38 ± 0.87
200 K, Crystal | 244.52 ± 0.89
210 K, Crystal | 253.93 ± 0.91
220 K, Crystal | 264.97 ± 0.93
230 K, Crystal | 276.95 ± 0.95
240 K, Crystal | 291.77 ± 0.98
250 K, Crystal | 320.5 ± 1
270 K, Liquid | 395.83 ± 1.2
280 K, Liquid | 398.95 ± 1.2
290 K, Liquid | 402.95 ± 1.2
300 K, Liquid | 406.99 ± 1.2
310 K, Liquid | 411.22 ± 1.2
320 K, Liquid | 416.08 ± 1.2
330 K, Liquid | 421.78 ± 1.2
340 K, Liquid | 426.55 ± 1.2
350 K, Liquid | 431.52 ± 1.3

Settings | Molar enthalpy of transition or fusion [kJ/mol] | Triple point temperature [K]
[2] | – | 261.8 ± 0.16
[3] | 36.2 ± 0.51 | –
